Positions of bridges follow the written chain, without caps; N, C: chain ends. Residues, ends and D or L forms follow the SMILES beside them.
Tests used:
Escherichia coli ML35 = test: Agar diffusion assay; assay type: cell-based
Description: (§1) The purified chromatographic peaks were screened for antibacterial activity against Escherichia coli ML35 and Staphylococcus aureus 502a. Briefly, antibacterial activity was screened with an agar diffusion assay using lyophilized samples of HPLC fractions dissolved in 5 μl of 0.01% acetic acid as described by Lehrer et al., J. Immunol. Methods 137:167-173 (1991)).
(§2) Agar diffusion assays and microbicidal suspension assays were used to examine the activity of theta defensin against Staphylococcus aureus 502A, Escherichia coli ML35, Listeria monocytogenes, and Cryptococcus neoformans.

[1] = test system: Staphylococcus aureus 502a; test: Agar diffusion assay; assay type: cell-based
Description: as §1, §2

[2] = test system: Cryptococcus neoformans 271A; test: Agar diffusion assay; assay type: cell-based; settings: 10, 30, 100 or 300 μg/ml; agar seeded with 1×10^6 colony forming units; FIG. 7
Description: as §2

[3] = test system: Listeria monocytogenes EGD; test: Agar diffusion assay; assay type: cell-based; settings: 10, 30, 100 or 300 μg/ml; agar seeded with 1×10^6 colony forming units; FIG. 7
Description: as §2

[4] = test system: Staphylococcus aureus 502a; test: Microbicidal suspension assay (colony counts); assay type: cell-based
Description: S. aureus 502a was incubated with increasing concentrations of natural or synthetic theta defensin peptide. Killing was quantified by colony counts.
Killing was quantified by colony counts. […] The limit of detection (1 colony per plate) was equal to 1×10^3 colony forming units in the incubation mixture.
Killing activity was quantified by colony counts after 18 hrs.
Killing was quantified by colony counts.
(§3) Additional antimicrobial assays were conducted on other microbial organisms. […] In FIG. 9A, S. aureus 502a was incubated with increasing concentrations of natural or synthetic peptide for 30 min at 37° C. in 10 mM PIPES, pH 7.4, containing 5 mM glucose. Killing was quantified by colony counts. […] The limit of detection (1 colony per plate) was equal to 1×10^3 colony forming units in the incubation mixture.
It has been proposed that salt sensitivity of airway defensins underlies the susceptibility of cystic fibrosis patients to pulmonary infections.
(§4) An acyclic version of theta defensin was also tested for antimicrobial activity. […] Killing activity was quantified by colony counts after 18 hrs.

L. monocytogenes = test: Microbicidal suspension assay (colony counts); assay type: cell-based, Listeria monocytogenes; settings: 2 hr, 37° C., 10 mM PIPES, pH 7.4, 5 mM glucose; FIG. 9B
Description: (§5) Killing was quantified by colony counts. Panels B-D show incubation of the indicated organisms with RTD-1 peptide: Listeria monocytogenes and Staphylococcus aureus (Panel B); Salmonella typhimurium and Escherichia coli (Panel C); and Cryptococcus neoformans and Candida albicans (Panel D). The limit of detection (1 colony per plate) was equal to 1×10^3 colony forming units in the incubation mixture.
as §3

E. coli ML 35 = test: Microbicidal suspension assay (colony counts); assay type: cell-based, Escherichia coli
Description: as §5, §3, §4

S. typhimurium = test: Microbicidal suspension assay (colony counts); assay type: cell-based, Salmonella typhimurium; settings: 2 hr, 37° C., 10 mM PIPES, pH 7.4, 5 mM glucose; FIG. 9C
Description: as §5, §3

C. albicans = test: Microbicidal suspension assay (colony counts); assay type: cell-based, Candida albicans; settings: 2 hr, 37° C., 10 mM PIPES, pH 7.4, 5 mM glucose; FIG. 9D
Description: as §5, §3

C. neoformans = test: Microbicidal suspension assay (colony counts); assay type: cell-based, Cryptococcus neoformans; settings: 2 hr, 37° C., 10 mM PIPES, pH 7.4, 5 mM glucose; FIG. 9D
Description: as §5, §3

[5] = 10, 30, 100 or 300 μg/ml, agar seeded with 1×10^6 colony forming units, FIG. 7
[6] = lyophilized HPLC fractions in 5 μl of 0.01% acetic acid, compared with other isolated leukocyte peptides

With `CC[C@H](C)[C@@H]1NC(=O)[C@@H]2CSSC[C@H](NC(=O)[C@H](CCCNC(=N)N)NC(=O)[C@@H]3CSSC[C@H](NC1=O)C(=O)N[C@@H]([C@@H](C)O)C(=O)N[C@@H](CCCNC(=N)N)C(=O)NCC(=O)N[C@@H](Cc1ccccc1)C(=O)N3)C(=O)N[C@@H](CC(C)C)C(=O)N[C@H]1CSSC[C@H](NC(=O)[C@H](C(C)C)NC(=O)CNC(=O)[C@H](CCCNC(=N)N)NC(=O)[C@H](CCCNC(=N)N)NC1=O)C(=O)N[C@@H](CCCNC(=N)N)C(=O)N2` [RTD-1] (cyclo(GFCRCLCRRGVCRCICTR); disulfide 3-16, 5-14, 7-12) the zone of inhibition (Escherichia coli ML35; [5]) was “dose dependent increase in the zone of inhibition”, the “antibacterial activity (screen of purified chromatographic peaks)” value (Escherichia coli ML35; [6]) was “greatest activity of any of the peptides isolated” and the zone of inhibition [1, 5] was “dose dependent increase in the zone of inhibition”. For the same molecule, the “antibacterial activity (screen of purified chromatographic peaks)” value [1, 6] was “greatest activity of any of the peptides isolated”, the zone of inhibition [2] was “dose dependent increase in the zone of inhibition” and the zone of inhibition [3] was “dose dependent increase in the zone of inhibition”. For the same molecule, the “effect of NaCl on staphylocidal activity” value ([4]; 10 μg/ml peptide, 2 h incubation, NaCl concentrations as high as 150 mM, FIG. 9E) was “little effect”, the microbicidal activity ([4]; 37° C., 10 mM PIPES, pH 7.4, 5 mM glucose, FIG. 9) was “killed” and the “peptide concentration reducing colony counts to below the level of detection” value ([4]; 2 h at 37° C. in 10 mM PIPES, pH 7.4, FIG. 8) was ≥ 4 µg/mL. For the same molecule, the “activity of cyclic form relative to acyclic form” value ([4]; gram positive bacteria (Staphylococcus)) was “about three times more active”, the microbicidal activity (L. monocytogenes) was “killed” and the microbicidal activity (E. coli ML 35; 2 hr, 37° C., 10 mM PIPES, pH 7.4, 5 mM glucose, FIG. 9C) was “killed”. The “activity of cyclic form relative to acyclic form” value (E. coli ML 35; gram negative bacteria (E. coli)) was “about three times more active”, the microbicidal activity (S. typhimurium) was “killed” and the microbicidal activity (C. albicans) was “killed”. The microbicidal activity (C. neoformans) was “killed”.

— patent US6890537B2, “Antimicrobial theta defensins and methods of using same” (The Regents of the University of California, priority 1999, dated 2005)
